Data set [1] concerns Schistosoma mansoni. As to the kind of experiment: Antiparasitic activity against Schistosoma mansoni assessed as cumulative egg reduction at 20 uM. It counts as functional. Also noted: scale not given: the % may be the effect or the level left.
In data set [2] the test system is Schistosoma mansoni. As to the kind of experiment: Antiparasitic activity against Schistosoma mansoni assessed cell viability at 20 uM after 5 days. It counts as functional.
A short description of data set [3]: Inhibition of Plasmodium falciparum Sir2A.
The subject of data set [4] is Schistosoma mansoni. As to the kind of experiment: Antiparasitic activity against Schistosoma mansoni assessed as pairing at 20 uM after 6 days relative to control. It counts as functional.
Data set [5] has as its system Leishmania infantum. As to the kind of experiment: Antileishmanial activity against amastigote stage of Leishmania infantum MHOM/MA671TMAP263 expressing luciferase after 72 hrs by luciferase assay. It counts as functional, organism-based. The note with it: MHOM/MA671TMAP263, 72 h.
Data set [6] has as its system Plasmodium falciparum. The data set can be described thus: Antiplasmodial activity against Plasmodium falciparum 3D7 assessed as growth inhibition after 24 hrs by measuring incorporation of [3H]-hypoxanthine by liquid scintillation counting method. It counts as functional, organism-based.
Data set [7] deals with Leishmania infantum. As to the kind of experiment: Antiproliferative activity against promastigote stage of Leishmania infantum measured for 1 min and 45 secs by propidium iodide staining-based flow cytometry. It counts as functional, organism-based.
The subject of data set [8] is Leishmania infantum. As to the kind of experiment: Antiproliferative activity against amastigote stage of Leishmania infantum measured for 1 min and 45 secs by propidium iodide staining-based flow cytometry. It counts as functional, organism-based. In general terms: A flow cytometer gives signals particle by particle.
In data set [9] the target is T1, Protein deacetylase HDAC6 (Homo sapiens, UniProt Q9UBN7).
T1 sequence (Q9UBN7 whole entry): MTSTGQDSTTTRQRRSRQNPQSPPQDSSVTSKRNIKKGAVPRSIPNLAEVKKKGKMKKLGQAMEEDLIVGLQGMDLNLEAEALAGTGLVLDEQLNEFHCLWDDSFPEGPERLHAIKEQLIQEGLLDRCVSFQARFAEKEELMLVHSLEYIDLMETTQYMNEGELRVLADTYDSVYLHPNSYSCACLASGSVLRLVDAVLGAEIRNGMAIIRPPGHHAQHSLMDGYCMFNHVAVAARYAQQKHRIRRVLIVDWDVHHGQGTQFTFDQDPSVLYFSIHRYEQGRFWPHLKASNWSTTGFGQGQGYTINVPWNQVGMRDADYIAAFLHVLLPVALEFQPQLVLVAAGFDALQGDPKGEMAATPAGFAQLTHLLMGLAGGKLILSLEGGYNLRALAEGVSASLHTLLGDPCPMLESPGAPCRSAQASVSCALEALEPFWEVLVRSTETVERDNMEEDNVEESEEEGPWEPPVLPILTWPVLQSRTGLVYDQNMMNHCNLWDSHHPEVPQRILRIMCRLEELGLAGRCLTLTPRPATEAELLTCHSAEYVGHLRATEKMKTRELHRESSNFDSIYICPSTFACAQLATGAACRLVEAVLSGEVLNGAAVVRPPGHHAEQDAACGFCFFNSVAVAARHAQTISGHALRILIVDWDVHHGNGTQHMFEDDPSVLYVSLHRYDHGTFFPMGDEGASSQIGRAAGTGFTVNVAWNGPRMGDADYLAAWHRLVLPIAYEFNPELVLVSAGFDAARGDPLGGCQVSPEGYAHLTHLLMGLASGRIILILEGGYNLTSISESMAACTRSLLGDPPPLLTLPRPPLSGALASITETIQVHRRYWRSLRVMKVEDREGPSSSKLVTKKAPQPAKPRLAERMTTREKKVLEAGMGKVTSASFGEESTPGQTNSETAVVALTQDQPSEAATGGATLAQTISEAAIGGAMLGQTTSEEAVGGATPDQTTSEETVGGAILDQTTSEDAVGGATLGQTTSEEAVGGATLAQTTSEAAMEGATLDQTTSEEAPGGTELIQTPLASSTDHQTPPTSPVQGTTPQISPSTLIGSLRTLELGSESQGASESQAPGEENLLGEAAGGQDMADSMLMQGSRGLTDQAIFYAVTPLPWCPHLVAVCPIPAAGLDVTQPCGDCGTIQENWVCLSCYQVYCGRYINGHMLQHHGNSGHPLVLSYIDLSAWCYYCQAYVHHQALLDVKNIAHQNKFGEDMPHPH
The data set can be described thus: Inhibition of human HDAC6 using Z(Ac)Lys-AMC as substrate by fluorimetric assay.

Data set [10] relates to Schistosoma mansoni. The data set can be described thus: Antiparasitic activity against Schistosoma mansoni assessed as reduction in cell viability at 50 uM after 3 days relative to control. It counts as functional.
Data set [11] has as its target T2, Histone deacetylase 8 (Homo sapiens, UniProt Q9BY41).
T2 sequence (Q9BY41 whole entry): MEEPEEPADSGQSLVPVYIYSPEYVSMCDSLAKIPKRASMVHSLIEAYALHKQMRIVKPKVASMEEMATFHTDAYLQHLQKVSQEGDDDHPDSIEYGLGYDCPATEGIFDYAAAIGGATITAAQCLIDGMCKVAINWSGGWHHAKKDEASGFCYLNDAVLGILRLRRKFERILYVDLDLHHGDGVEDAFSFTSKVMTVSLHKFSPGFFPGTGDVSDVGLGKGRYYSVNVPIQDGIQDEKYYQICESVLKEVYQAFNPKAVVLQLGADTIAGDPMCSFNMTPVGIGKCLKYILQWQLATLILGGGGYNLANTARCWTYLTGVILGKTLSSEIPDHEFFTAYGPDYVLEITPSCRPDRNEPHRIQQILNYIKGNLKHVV
As to the kind of experiment: Inhibition of human HDAC8 using Fluor de Lys(R) as substrate by fluorimetric assay.

Another data set deals with Histone deacetylase 1 (Homo sapiens, UniProt Q13547). As to the kind of experiment: Inhibition of human HDAC1 using Z(Ac)Lys-AMC as substrate by fluorimetric assay.
Histone deacetylase 1, sequence (Q13547 whole entry): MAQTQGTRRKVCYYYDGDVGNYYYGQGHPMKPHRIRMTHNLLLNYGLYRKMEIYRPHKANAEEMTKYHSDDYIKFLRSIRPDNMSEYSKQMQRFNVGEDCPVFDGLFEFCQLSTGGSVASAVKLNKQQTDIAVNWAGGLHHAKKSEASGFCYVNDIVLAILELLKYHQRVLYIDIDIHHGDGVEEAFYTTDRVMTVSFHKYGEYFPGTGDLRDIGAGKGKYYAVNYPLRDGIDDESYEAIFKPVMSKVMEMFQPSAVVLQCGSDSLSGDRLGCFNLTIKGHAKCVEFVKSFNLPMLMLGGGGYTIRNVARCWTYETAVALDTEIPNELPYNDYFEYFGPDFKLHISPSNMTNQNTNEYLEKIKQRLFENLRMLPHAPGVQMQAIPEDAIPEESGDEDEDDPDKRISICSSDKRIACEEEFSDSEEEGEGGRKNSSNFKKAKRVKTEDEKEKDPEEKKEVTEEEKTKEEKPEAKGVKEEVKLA
For data set [12], the target named is T3, Histone deacetylase 8 (Schistosoma mansoni, UniProt A5H660).
T3 sequence (A5H660 whole entry): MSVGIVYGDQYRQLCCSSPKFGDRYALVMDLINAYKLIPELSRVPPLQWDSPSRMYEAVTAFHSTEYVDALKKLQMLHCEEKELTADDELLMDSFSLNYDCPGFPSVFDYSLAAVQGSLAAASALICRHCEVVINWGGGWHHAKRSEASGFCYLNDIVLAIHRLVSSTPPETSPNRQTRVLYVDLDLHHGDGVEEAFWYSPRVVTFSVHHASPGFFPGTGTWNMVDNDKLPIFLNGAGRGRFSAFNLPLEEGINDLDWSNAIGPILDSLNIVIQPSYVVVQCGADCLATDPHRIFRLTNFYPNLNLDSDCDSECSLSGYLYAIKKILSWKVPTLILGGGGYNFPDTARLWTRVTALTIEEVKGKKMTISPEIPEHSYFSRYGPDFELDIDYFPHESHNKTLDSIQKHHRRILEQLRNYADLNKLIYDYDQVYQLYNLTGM
The data set can be described thus: Inhibition of Schistosoma mansoni HDAC8 using Fluor de Lys(R) as substrate by fluorimetric assay.

Data set [13] can be described thus: Selectivity index, ratio of IC50 for human NHDF cells to IC50 for Plasmodium falciparum. It is filed as toxicity. To be noted: read-out: Ratio IC50.
Data set [14] can be described thus: Selectivity index, ratio of IC50 for human PTC cells to IC50 for Plasmodium falciparum. It is filed as toxicity. The note with it: read-out: Ratio IC50.
A short description of data set [15]: Selectivity index, ratio of IC50 for human NFF cells to IC50 for Plasmodium falciparum. It is filed as toxicity. The note with it: read-out: Ratio IC50.
The subject of data set [16] is Plasmodium falciparum. The data set can be described thus: Antimalarial activity against Plasmodium falciparum infected in human erythrocytes after 24 hrs by microbeta scintillation counting-based [3H]-hypoxanthine incorporation assay. It is filed as functional, organism-based.
Data set [17] in a line: Selectivity index, ratio of IC50 for HUVEC to IC50 for Plasmodium falciparum. The note with it: human, read-out: Ratio IC50. It is filed as toxicity.
Data set [18] addresses T4, NAD-dependent protein deacetylase sirtuin-1 (Homo sapiens, UniProt Q96EB6).
T4 sequence (Q96EB6 whole entry): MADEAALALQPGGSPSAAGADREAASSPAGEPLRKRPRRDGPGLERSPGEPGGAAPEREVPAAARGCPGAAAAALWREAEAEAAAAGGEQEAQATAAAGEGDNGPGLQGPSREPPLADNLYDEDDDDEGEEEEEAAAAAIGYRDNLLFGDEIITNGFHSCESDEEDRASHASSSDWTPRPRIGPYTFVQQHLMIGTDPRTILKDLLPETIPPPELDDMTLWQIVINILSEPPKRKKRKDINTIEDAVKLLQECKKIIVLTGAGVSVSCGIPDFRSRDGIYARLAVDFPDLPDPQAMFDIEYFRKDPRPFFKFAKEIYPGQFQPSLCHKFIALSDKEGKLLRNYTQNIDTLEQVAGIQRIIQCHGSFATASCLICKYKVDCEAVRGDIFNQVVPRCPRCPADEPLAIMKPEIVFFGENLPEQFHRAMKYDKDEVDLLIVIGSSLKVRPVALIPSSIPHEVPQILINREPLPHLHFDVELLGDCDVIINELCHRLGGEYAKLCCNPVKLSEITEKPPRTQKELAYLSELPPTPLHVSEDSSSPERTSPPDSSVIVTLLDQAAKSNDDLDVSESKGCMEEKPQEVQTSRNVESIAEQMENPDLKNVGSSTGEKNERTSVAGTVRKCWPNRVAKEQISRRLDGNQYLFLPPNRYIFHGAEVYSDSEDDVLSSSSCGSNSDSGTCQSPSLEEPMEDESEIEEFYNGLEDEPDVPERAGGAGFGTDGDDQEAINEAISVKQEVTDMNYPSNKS
The data set can be described thus: Inhibition of human SIRT1 in presence of NAD+ by fluorimetric method.

A short description of data set [19]: Selectivity index, ratio of IC50 for N-terminal His6-tagged recombinant Leishmania infantum SIR2RP1 expressed in Escherichia coli to IC50 for human SIRT1.
Data set [20] has as its system Plasmodium falciparum. The data set can be described thus: Gametocytocidal activity against transgenic GFP-fused Plasmodium falciparum NF54 early stage gametocytes after 72 hrs by Mitotracker Red CMH2XRos staining based microscopic method. It counts as functional, organism-based. To be noted: NF54, 72 h.
The subject of data set [21] is Plasmodium falciparum. As to the kind of experiment: Gametocytocidal activity against transgenic GFP-fused Plasmodium falciparum NF54 late stage gametocytes after 72 hrs by Mitotracker Red CMH2XRos staining based microscopic method. It is filed as functional, organism-based. To be noted: NF54, 72 h.

Molecules are shown by their SMILES.

The record followed here is ChEMBL document CHEMBL4184137, “Lysine Deacetylase Inhibitors in Parasites: Past, Present, and Future Perspectives” (J Med Chem, 2017).

Take `CC(NC(=O)c1ccccc1/N=C/c1c(O)ccc2ccccc12)c1ccccc1` (stereo not drawn) [SIRTINOL]: the Activity came out at 42% in the data set with Schistosoma mansoni [1], 100% in the data set with Schistosoma mansoni [2] and 75% in the data set with Schistosoma mansoni [4]. For the same molecule, the IC50 (as a rule, the concentration needed to halve the response being measured) is over 50 µM in data set [3]; 30 µM in the data set on Leishmania infantum [5]; 9 to 13 µM in the data set with Plasmodium falciparum [6]; over 60 µM with Leishmania infantum [7]; 30 µM in the data set on Leishmania infantum [8].
In the case of `O=C(NO)c1sc2ccccc2c1Cl`, the IC50 in data set [9] was determined as 37.4 µM; on Histone deacetylase 8 [11] it was 3.1 µM; on Histone deacetylase 1, 19.4 µM; on Histone deacetylase 8 [12] it was 4.3 µM. In addition, the Activity in the data set with Schistosoma mansoni [10] worked out at 100%.
For `CCCCc1nc2cc(/C=C/C(=O)NO)ccc2n1CCN(CC)CC` [PRACINOSTAT], the selectivity ratio in data set [13], in data set [14], in data set [15] and in data set [17] was 4 to 1250 throughout. In addition, in the data set with Plasmodium falciparum [16], the IC50 was 0.08 to 0.15 µM.
As for `O=C1c2cccc3cccc(c23)C(=O)N1CCCNCCCCCCCCCNCCCN1C(=O)c2cccc3cccc(c23)C1=O`, the IC50 in data set [18] was 97.4 µM; with Leishmania infantum [5], 6.03 µM. In [19], the Ratio IC50 is 17.
As for `O=C(CCCCCCC(=O)Nc1ccccc1)NO` [VORINOSTAT], the IC50 in the data set on Plasmodium falciparum [20] and with Plasmodium falciparum [21] was 1.68 to 6.65 µM throughout.
